Test [1] relates to E. coli K-12 (MG1655) isogenic loss of function strains. Nature of the test: ciprofloxacin MIC of isogenic strains (Table 5). The note with it: Escherichia coli.
For test [2], the system named is ATCC 25922-lexA(S119A)(gyrA(S83L)). Nature of the test: second step mutation rate to 650 ng/ml ciprofloxacin resistance. The format is cell-based, E. coli. Particulars: lexA(S119A) strain already resistant to 35 ng/ml, evolving resistance to 650 ng/ml ciprofloxacin.
Description: (§3) Error bars represent standard deviation from two independent rate determinations.
Test [3] concerns ATCC 25922-ΔlacZ(gyrA(S83L)). The test is described as above. Format: cell-based, E. coli. The note with it: wild-type strain already resistant to 35 ng/ml, evolving resistance to 650 ng/ml ciprofloxacin.
Description: as §3
The test system of another test is ATCC 25922-lexA(S119A). Put plainly: mouse thigh infection treated with ciprofloxacin, resistant colonies. The note with it: mice given approximately cytostatic ciprofloxacin dose.
The subject of another test is E. coli MG1655. Nature of the test: pre-exposure to rifampicin, then plating on 35 ng/mL ciprofloxacin. The format is cell-based.
Test [4] has as its system ATCC 25922 lexA(S119A). Nature of the test: in vitro susceptibility testing with rifampin, Example 8. The format is cell-based, E. coli. On the procedure:
(§1) In vitro susceptibility testing was performed with rifampin on the parent strains and on cells isolated from the agar plates after therapy.

For test [5], the system named is E. coli ATCC 25922-ΔlacZ. Nature of the test: neutropenic Swiss ICR mouse thigh infection treated with rifampin, CFU determination. The note with it: lacZ Strain; rifampin 100 mg/kg subcutaneous every 12 hours; 96 h.
Protocol: Two hours after infection the mice received rifampin at 100 mg/kg (subcutaneous) every 12 hours. The mice continued the rifampin regimen until they were sacrificed. Two mice were sacrificed at 0, 24, 48, 72 and 96 hours. The thighs were removed, homogenized, 1:10 serial diluted, and plated for CFU determination. Homogenates were plated on MH agar (NHA) to quantify the entire population of organisms and on rifampin containing MHA plates (16 mg/L) to quantify the population of organisms with a rifampin resistance phenotype.
For test [6], the system named is E. coli ATCC 25922-ΔlacZ. Nature of the test: in vitro susceptibility testing with rifampin, Example 8. Format: cell-based. The note with it: Escherichia coli. On the procedure: as §1
Test [7] has as its system LexA strain (ATCC 25922 lexA(S119A)). Put plainly: in vitro susceptibility testing (NCCLS method), rifampin MIC. Format: cell-based, E. coli. The note with it: Escherichia coli. On the procedure:
(§2) In vitro susceptibility testing of strains was preformed using the NCCLS method. (See National Committee for Clinical Laboratory Standards. 1997. Reference method for broth dilution anti-fungal susceptibility testing of yeasts. Approved standard M27-A. National Committee for Clinical Laboratory Standards, Wayne, Pa.) Eight colonies from each group at the 72 hr time point from MHA plate with and without rifampin were obtained. Minimum inhibitory concentrations (“MICs”) were performed in duplicate on three occasions on each colony. […] Minimum inhibitory concentrations of both the LexA and LacZ strains pre-treatment=8.0 mg/L.

For test [8], the system named is LacZ strain (ATCC 25922-ΔlacZ). The test is described as above. The format is cell-based, E. coli. Particulars: Escherichia coli. On the procedure: as §2
Test [9] has as its system ATCC 25922 lexA(S119A). Put plainly: neutropenic CD1 mouse thigh infection treated with rifampin, colonies on rifampin plates. Particulars: rifampin 100 mg/kg twice daily subcutaneous; plates 128 mg/L; over the 72 h study period.
Protocol: (§4) Two hours after infection mice were treated with rifampin 100 mg/kg twice daily via the subcutaneous route. Groups of two mice were sacrificed at the started of therapy (zero hour) and every 24 h for a period of 72 h. After euthanasia, thigh were removed, homogenized, diluted, and plated for CFU enumeration (lower limit of detection is 2 log cfu/thigh). Homogenate dilutions were plated on MHA with and without rifampin (128 mg/L).
Test [10] has as its system E. coli ATCC 25922-ΔlacZ. Described as above. The note with it: rifampin 100 mg/kg twice daily subcutaneous; plates 128 mg/L; after 72 h of therapy.
Protocol: as §4
In another test the target is LexA (Escherichia coli, UniProt P0A7C2). Particulars: peptide at 1.5 mM; LexA 5 uM, 0.25 uM activated RecA, 37 degrees, 30 min (FIG. 20).
Sequence of LexA (P0A7C2 whole entry): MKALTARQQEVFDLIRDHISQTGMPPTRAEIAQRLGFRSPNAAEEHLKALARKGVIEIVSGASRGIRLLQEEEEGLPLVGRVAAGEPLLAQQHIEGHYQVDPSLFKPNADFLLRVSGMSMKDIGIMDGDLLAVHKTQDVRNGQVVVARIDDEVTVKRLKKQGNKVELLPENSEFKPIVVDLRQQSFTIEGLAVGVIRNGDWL
Where [11] appears, read: ATCC25922, colonies from the 72 hr time point of rifampin therapy in mice, read-out: Minimum Inhibitory Concentrations, Post.
Setting [12] is: ATCC25922, pre-treatment, read-out: Minimum Inhibitory Concentrations, Pre.

≈ marks a conversion by molar mass, not a printed value. Where two headings read alike, the source gives them in different places.

With `O=C(O)c1cn(C2CC2)c2cc(N3CCNCC3)c(F)cc2c1=O` [ciprofloxacin], the MIC in [1] (MG1655, read-out: ciprofloxacin MIC, strain lexA (S119A), WT gyrA) is 0.03 µg/mL; in [1] (MG1655, read-out: ciprofloxacin MIC, strain lexA (S119A), gyrA S83L) it was 0.35 µg/mL; in test [1] (MG1655, read-out: ciprofloxacin MIC, strain lexA (S119A), gyrA S83Δ) it was 0.25 µg/mL; in test [1] (MG1655, read-out: ciprofloxacin MIC, strain ΔdinB, WT gyrA), 0.035 µg/mL; in test [1] (MG1655, read-out: ciprofloxacin MIC, strain ΔdinB, gyrA S83L), 0.45 µg/mL; in test [1] (MG1655, read-out: ciprofloxacin MIC, strain ΔdinB, gyrA S83Δ), 0.25 µg/mL. Besides, the MIC was 0.035 µg/mL in test [1] (MG1655, read-out: ciprofloxacin MIC, strain ΔdinB, ΔumuDC, WT gyrA); 0.45 µg/mL in test [1] (MG1655, read-out: ciprofloxacin MIC, strain ΔdinB, ΔumuDC, gyrA S83L); 0.25 µg/mL in test [1] (MG1655, read-out: ciprofloxacin MIC, strain ΔdinB, ΔumuDC, gyrA S83Δ); 0.035 µg/mL in test [1] (MG1655, read-out: ciprofloxacin MIC, strain ΔlacZ, WT gyrA); 0.45 µg/mL in test [1] (MG1655, read-out: ciprofloxacin MIC, strain ΔlacZ, gyrA S83L); 0.25 µg/mL in [1] (MG1655, read-out: ciprofloxacin MIC, strain ΔlacZ, gyrA S83Δ). Also, the MIC in [1] (MG1655, read-out: ciprofloxacin MIC, strain ΔpolB, WT gyrA) came out at 0.03 µg/mL; in test [1] (MG1655, read-out: ciprofloxacin MIC, strain ΔpolB, gyrA S83L), 0.45 µg/mL; in [1] (MG1655, read-out: ciprofloxacin MIC, strain ΔpolB, gyrA S83Δ), 0.25 µg/mL; in test [1] (MG1655, read-out: ciprofloxacin MIC, strain ΔpolB, ΔdinB, WT gyrA), 0.025 µg/mL; in test [1] (MG1655, read-out: ciprofloxacin MIC, strain ΔpolB, ΔdinB, gyrA S83L) it was 0.45 µg/mL; in test [1] (MG1655, read-out: ciprofloxacin MIC, strain ΔpolB, ΔdinB, gyrA S83Δ), 0.25 µg/mL. The MIC in test [1] (MG1655, read-out: ciprofloxacin MIC, strain ΔpolB, ΔdinB, ΔumuDC, WT gyrA) turned out to be 0.025 µg/mL; in test [1] (MG1655, read-out: ciprofloxacin MIC, strain ΔpolB, ΔdinB, ΔumuDC, gyrA S83L), 0.45 µg/mL; in test [1] (MG1655, read-out: ciprofloxacin MIC, strain ΔpolB, ΔdinB, ΔumuDC, gyrA S83Δ), 0.25 µg/mL; in test [1] (MG1655, read-out: ciprofloxacin MIC, strain ΔpolB, ΔumuDC, WT gyrA), 0.025 µg/mL; in test [1] (MG1655, read-out: ciprofloxacin MIC, strain ΔpolB, ΔumuDC, gyrA S83L), 0.45 µg/mL; in [1] (MG1655, read-out: ciprofloxacin MIC, strain ΔpolB, ΔumuDC, gyrA S83Δ), 0.25 µg/mL. Moreover, the MIC in test [1] (MG1655, read-out: ciprofloxacin MIC, strain ΔrecD, WT gyrA) is 0.035 µg/mL; in [1] (MG1655, read-out: ciprofloxacin MIC, strain ΔrecD, gyrA S83L), 0.35 µg/mL; in test [1] (MG1655, read-out: ciprofloxacin MIC, strain ΔrecD, gyrA S83Δ) it was 0.25 µg/mL; in test [1] (MG1655, read-out: ciprofloxacin MIC, strain ΔumuDC, WT gyrA), 0.035 µg/mL; in test [1] (MG1655, read-out: ciprofloxacin MIC, strain ΔumuDC, gyrA S83L), 0.45 µg/mL; in test [1] (MG1655, read-out: ciprofloxacin MIC, strain ΔumuDC, gyrA S83Δ) it was 0.25 µg/mL. For the same molecule, the “'second step' mutation rate” value was 5.5 (±4.9)×10^−7 mutants/(cell day) in test [2] and 1.9 (±0.21)×10^−4 mutants/(cell day) in [3]. Also, the “Colonies isolated on plates containing ciprofloxacin” value is listed as 3 in the test with ATCC 25922-lexA(S119A) (day 1 post infection, plates 20 ng/mL); 1 in the test on ATCC 25922-lexA(S119A) (day 1 post infection, plates 80 ng/mL); 2 with ATCC 25922-lexA(S119A) (day 2 post infection, plates 20 ng/mL); 0 in the test with ATCC 25922-lexA(S119A) (day 2 post infection, plates 80 ng/mL).
Take `CO[C@H]1/C=C/O[C@@]2(C)Oc3c(C)c(O)c4c(O)c(c(/C=N/N5CCN(C)CC5)c(O)c4c3C2=O)NC(=O)/C(C)=C\C=C\[C@H](C)[C@H](O)[C@@H](C)[C@@H](O)[C@@H](C)[C@H](OC(C)=O)[C@@H]1C` [rifampin]: the “effect on number of ciprofloxacin resistant colonies” value in the test with E. coli MG1655 (4 mg/mL rifampicin in PBS, four days, 37° C., plated on 35 ng/mL ciprofloxacin) is reported as “no effect”. Besides, the “effect on number of ciprofloxacin resistant cells” value in the test with E. coli MG1655 (12 mg/mL rifampicin in PBS, four days, 37° C., plated on 35 ng/mL ciprofloxacin) is given as “dramatic increase”; in the test on E. coli MG1655 (36 mg/mL rifampicin in PBS, four days, 37° C., plated on 35 ng/mL ciprofloxacin), “dramatic increase”. For the same molecule, in the test with E. coli MG1655 (umuDC deletion stain, 12 or 36 mg/mL rifampicin), the “effect on number of ciprofloxacin resistant cells in umuDC deletion strain” value was “essentially completely lost”. Besides, the MIC in the test with ATCC 25922 lexA(S119A) [4] (Escherichia coli, ATCC25922, parent strain, read-out: MIC) is 8 µg/mL (≈ 9.72 µM); in the test with ATCC 25922 lexA(S119A) [4] (colonies after therapy), 8.0 µg/mL (≈ 9.72 µM); against E. coli ATCC 25922-ΔlacZ [6] (ATCC25922, colonies isolated from the rifampin containing plates after therapy), over 256 µg/mL; with E. coli ATCC 25922-ΔlacZ [6] (ATCC25922, parent strain), 8 µg/mL (≈ 9.72 µM); in test [7] (setting [11]), 16 to 32 µg/mL (≈ 19.4 to 38.9 µM); in [7] (setting [12]), 8 µg/mL (≈ 9.72 µM). Besides, the figures for the MIC in test [8] (setting [11]) and in test [8] (setting [12]) were over 16400 µg/mL and 8 µg/mL (≈ 9.72 µM), respectively. Besides, the “CFU/Thigh, Media (outcome of mice)” value with E. coli ATCC 25922-ΔlacZ [5] is recorded as “mice dead”. Moreover, the figures for the “colonies on rifampin containing plates” value in the test on ATCC 25922 lexA(S119A) [9] and in the test on E. coli ATCC 25922-ΔlacZ [10] were “no colonies grew” and “large number”, respectively.
For the molecule VAAGEPL [peptide 3], the “inhibition of LexA's autocleavage” value at LexA is “inhibition”.

Values taken from patent US7455840B2, “Compositions and methods to reduce mutagenesis” (priority 2003, dated 2008).
